For the assay, the target named is Metabotropic glutamate receptor 1 (Rattus norvegicus, UniProt P23385). The assay is described as follows: Displacement of […] from rat mGlu1 receptor expressed in CHO-TREx cell membranes after 30 mins by liquid scintillation spectrometric analysis. (In general: Loss of bound radioactivity is the signal in a displacement assay; it reports binding, not function.)

Some results are limits rather than exact numbers.

Sequence of Metabotropic glutamate receptor 1 (P23385 whole entry): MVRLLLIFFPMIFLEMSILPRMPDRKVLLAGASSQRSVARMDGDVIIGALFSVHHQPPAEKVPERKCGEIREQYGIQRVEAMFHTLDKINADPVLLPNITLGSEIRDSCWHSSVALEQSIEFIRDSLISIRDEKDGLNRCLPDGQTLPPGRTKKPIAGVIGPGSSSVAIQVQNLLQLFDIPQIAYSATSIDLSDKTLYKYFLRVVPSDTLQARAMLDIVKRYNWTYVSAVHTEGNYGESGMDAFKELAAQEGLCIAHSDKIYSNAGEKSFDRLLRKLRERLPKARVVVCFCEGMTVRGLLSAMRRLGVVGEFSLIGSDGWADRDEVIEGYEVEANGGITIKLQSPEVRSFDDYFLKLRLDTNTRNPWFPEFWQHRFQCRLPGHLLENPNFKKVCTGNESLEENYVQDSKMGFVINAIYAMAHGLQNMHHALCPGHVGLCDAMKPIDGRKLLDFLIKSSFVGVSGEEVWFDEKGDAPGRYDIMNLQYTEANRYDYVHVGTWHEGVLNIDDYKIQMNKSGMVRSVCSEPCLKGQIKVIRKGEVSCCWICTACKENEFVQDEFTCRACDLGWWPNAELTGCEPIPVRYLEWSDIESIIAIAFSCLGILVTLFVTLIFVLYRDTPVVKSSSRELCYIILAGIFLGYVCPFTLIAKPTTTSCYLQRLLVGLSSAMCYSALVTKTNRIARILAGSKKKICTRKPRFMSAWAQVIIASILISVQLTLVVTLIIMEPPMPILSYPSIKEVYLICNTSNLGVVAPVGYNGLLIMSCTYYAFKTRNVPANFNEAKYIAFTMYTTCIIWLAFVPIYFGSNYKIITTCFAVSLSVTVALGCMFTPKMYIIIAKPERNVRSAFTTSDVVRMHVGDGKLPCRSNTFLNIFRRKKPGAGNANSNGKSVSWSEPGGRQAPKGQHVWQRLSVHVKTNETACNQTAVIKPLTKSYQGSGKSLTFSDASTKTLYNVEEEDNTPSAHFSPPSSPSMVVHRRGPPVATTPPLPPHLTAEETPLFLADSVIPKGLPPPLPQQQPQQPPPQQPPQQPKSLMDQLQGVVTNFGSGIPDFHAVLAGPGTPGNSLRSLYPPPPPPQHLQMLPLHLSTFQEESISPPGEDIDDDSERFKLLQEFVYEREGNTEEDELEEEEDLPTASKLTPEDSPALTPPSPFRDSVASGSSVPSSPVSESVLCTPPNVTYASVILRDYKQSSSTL

As for `Cc1nc(C#Cc2cccnc2)cs1` [3-(2-(2-methylthiazol-4-yl)ethynyl)pyridine], the Ki (usually a dissociation constant, usually derived from enzyme kinetics or from competition with a known ligand) is more than 10 µM.

The values are drawn from BindingDB's records for doi:10.1021/acs.jmedchem.8b01226 (Recordati, 2019).
